According to ChEMBL document CHEMBL4265944, “Novel amide derivatives of 1,3-dimethyl-2,6-dioxopurin-7-yl-alkylcarboxylic acids as multifunctional TRPA1 antagonists and PDE4/7 inhibitors: A new approach for the treatment of pain” (Eur J Med Chem, 2018):
pIC50: −log10 of the molar value. Activity calls are given as the source filed them. The calls are words filed in the database; no cut-off is given here.

How the values were obtained:
[1] = target: Transient receptor potential cation channel subfamily A member 1 (Homo sapiens) (UniProt O75762); assay: Antagonist activity at human TRPA1 expressed in HEK293 cells assessed as decrease in flufenamic acid-evoked increase in intracellular calcium level at 100 uM measured for 180 secs with 1 sec interval by Fluo4-AM dye-based fluorescence assay relative to control; assay type: cell-based
Chain of Transient receptor potential cation channel subfamily A member 1 (Homo sapiens) (O75762 whole entry): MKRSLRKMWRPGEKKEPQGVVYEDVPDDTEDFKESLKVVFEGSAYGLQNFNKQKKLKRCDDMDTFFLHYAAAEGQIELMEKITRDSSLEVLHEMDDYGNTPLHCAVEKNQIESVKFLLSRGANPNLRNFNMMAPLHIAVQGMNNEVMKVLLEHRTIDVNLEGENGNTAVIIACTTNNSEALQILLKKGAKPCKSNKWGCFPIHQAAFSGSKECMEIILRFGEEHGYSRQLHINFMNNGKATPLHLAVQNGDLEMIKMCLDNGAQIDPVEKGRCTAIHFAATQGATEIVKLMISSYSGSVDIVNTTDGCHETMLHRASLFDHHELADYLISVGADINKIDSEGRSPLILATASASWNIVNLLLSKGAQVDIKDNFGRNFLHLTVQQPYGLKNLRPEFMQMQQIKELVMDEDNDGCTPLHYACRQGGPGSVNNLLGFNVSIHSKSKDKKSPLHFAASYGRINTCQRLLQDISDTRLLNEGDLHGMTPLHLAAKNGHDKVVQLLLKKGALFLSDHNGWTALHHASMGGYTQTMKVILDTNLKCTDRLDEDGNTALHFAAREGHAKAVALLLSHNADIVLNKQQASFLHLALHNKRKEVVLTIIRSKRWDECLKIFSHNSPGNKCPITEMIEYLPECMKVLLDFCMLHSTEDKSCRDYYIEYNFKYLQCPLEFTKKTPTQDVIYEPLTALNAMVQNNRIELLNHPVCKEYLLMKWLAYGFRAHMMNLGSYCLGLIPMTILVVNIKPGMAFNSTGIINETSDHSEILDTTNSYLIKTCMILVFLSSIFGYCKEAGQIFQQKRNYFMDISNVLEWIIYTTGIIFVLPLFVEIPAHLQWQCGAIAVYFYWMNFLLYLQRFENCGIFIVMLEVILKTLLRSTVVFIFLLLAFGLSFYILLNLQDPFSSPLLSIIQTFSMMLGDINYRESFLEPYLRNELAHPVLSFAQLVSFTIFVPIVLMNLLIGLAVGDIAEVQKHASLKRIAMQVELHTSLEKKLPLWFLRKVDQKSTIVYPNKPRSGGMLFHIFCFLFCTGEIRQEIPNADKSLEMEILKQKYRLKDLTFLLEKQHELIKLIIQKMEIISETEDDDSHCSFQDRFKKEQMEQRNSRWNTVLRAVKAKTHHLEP

[2] = target: Transient receptor potential cation channel subfamily A member 1 (Homo sapiens) (UniProt O75762); assay: Antagonist activity at human TRPA1 expressed in HEK293 cells assessed as decrease in flufenamic acid-evoked increase in intracellular calcium level at 10 uM measured for 180 secs with 1 sec interval by Fluo4-AM dye-based fluorescence assay relative to control; assay type: cell-based
[3] = target: Transient receptor potential cation channel subfamily A member 1 (Homo sapiens) (UniProt O75762); assay: Antagonist activity at human TRPA1 expressed in HEK293 cells assessed as decrease in flufenamic acid-evoked increase in intracellular calcium level at 1 uM measured for 180 secs with 1 sec interval by Fluo4-AM dye-based fluorescence assay relative to control; assay type: cell-based
[4] = target: 3',5'-cyclic-AMP phosphodiesterase 4B (Homo sapiens, UniProt Q07343); assay: Inhibition of recombinant human PDE4B using cAMP as substrate after 10 mins by PDE-Glo Phosphodiesterase Assay
Chain of 3',5'-cyclic-AMP phosphodiesterase 4B (Q07343 whole entry): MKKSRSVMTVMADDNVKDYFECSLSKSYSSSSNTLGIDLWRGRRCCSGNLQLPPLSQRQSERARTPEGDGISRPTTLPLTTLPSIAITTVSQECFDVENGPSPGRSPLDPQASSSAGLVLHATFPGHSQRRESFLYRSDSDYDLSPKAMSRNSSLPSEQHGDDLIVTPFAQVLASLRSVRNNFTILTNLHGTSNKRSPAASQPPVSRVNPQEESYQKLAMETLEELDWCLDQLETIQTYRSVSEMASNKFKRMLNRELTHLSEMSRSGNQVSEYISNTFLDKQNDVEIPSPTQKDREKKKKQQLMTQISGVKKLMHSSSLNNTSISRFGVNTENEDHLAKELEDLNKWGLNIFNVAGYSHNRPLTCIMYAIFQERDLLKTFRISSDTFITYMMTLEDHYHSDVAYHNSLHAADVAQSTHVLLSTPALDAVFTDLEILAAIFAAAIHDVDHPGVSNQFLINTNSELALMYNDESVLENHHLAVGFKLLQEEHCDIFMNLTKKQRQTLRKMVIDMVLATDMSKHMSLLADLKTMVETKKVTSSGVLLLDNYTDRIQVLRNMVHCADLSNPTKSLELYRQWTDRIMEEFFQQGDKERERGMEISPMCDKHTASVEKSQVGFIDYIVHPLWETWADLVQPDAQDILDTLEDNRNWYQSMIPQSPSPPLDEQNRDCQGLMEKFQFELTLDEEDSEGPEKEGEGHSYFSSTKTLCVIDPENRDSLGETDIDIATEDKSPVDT

[5] = target: High affinity 3',5'-cyclic-AMP phosphodiesterase 7A (Homo sapiens, UniProt Q13946); assay: Inhibition of recombinant human PDE7A using cAMP as substrate after 10 mins by PDE-Glo Phosphodiesterase Assay
Chain of High affinity 3',5'-cyclic-AMP phosphodiesterase 7A (Q13946 whole entry): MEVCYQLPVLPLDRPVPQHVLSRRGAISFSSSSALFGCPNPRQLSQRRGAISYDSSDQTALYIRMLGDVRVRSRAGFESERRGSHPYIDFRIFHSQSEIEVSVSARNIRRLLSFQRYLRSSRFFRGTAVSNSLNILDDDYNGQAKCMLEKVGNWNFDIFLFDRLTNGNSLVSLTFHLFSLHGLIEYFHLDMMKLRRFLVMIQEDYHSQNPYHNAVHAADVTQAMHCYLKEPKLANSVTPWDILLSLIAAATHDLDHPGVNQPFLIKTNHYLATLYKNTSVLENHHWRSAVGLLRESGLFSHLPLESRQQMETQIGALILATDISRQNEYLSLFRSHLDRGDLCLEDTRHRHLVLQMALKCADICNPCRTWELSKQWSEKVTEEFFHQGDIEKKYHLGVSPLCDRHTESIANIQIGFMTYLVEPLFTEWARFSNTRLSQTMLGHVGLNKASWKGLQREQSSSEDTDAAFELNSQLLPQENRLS

Rattus norvegicus [6] = assay: Antiinflammatory activity in Wistar rat assessed as inhibition of LPS-induced TNF-alpha level at 50 mg/kg, ip measured at 1 hr post dose by ELISA relative to control; assay type: functional
Rattus norvegicus [7] = assay: Antiinflammatory activity in Wistar rat assessed as inhibition of LPS-induced TNF-alpha level at 50 mg/kg, ip measured at 1.5 hrs post dose by ELISA relative to control; assay type: functional
Rattus norvegicus [8] = assay: Antiinflammatory activity in Wistar rat assessed as inhibition of LPS-induced TNF-alpha level at 50 mg/kg, ip measured at 2 hrs post dose by ELISA relative to control; assay type: functional
[9] = Plasma concentration in Wistar rat model of LPS-induced inflammation at 50 mg/kg, ip measured at 1 hr post dose by HPLC method; assay type: ADME, organism-based
[10] = Plasma concentration in Wistar rat model of LPS-induced inflammation at 50 mg/kg, ip measured at 1.5 hrs post dose by HPLC method; assay type: ADME, organism-based
[11] = Plasma concentration in Wistar rat model of LPS-induced inflammation at 50 mg/kg, ip measured at 2 hrs post dose by HPLC method; assay type: ADME, organism-based
Mus musculus [12] = assay: Antiinflammatory activity in formalin-induced nociception Swiss CD-1 mouse model assessed as time spent on licking or biting formalin injected right hind paw during neurogenic phase at 10 mg/kg, ip measured during phase 1 (reference value: 33 +/- 1.45 sec); assay type: functional
Mus musculus [13] = assay: Antiinflammatory activity in formalin-induced nociception Swiss CD-1 mouse model assessed as time spent on licking or biting formalin injected right hind paw during neurogenic phase at 5 mg/kg, ip measured during phase 1 (reference value: 33 +/- 1.45 sec); assay type: functional
Mus musculus [14] = assay: Antiinflammatory activity in formalin-induced nociception Swiss CD-1 mouse model assessed as time spent on licking or biting formalin injected right hind paw during neurogenic phase at 2.5 mg/kg, ip measured during phase 1 (reference value: 33 +/- 1.45 sec); assay type: functional
Mus musculus [15] = assay: Antiinflammatory activity in formalin-induced nociception Swiss CD-1 mouse model assessed as time spent on licking or biting formalin injected right hind paw […] at 5 mg/kg, ip measured during phase 2 (reference value: 83.63 +/- 12.98 sec); assay type: functional
Mus musculus [16] = assay: Antiinflammatory activity in formalin-induced nociception Swiss CD-1 mouse model assessed as time spent on licking or biting formalin injected right hind paw during […] phase at 2.5 mg/kg, ip measured during phase 2 (reference value: 83.63 +/- 12.98 sec); assay type: functional
Mus musculus [17] = assay: Antiinflammatory activity in formalin-induced nociception ip dosed Swiss CD-1 mouse model assessed as time spent on licking or biting formalin injected right hind paw […] measured during phase 2; assay type: functional; settings: Swiss CD-1, ip
Mus musculus [18] = assay: Potency index, ratio of ED50 for HC-030031 to test compound ED50 for formalin-induced nociception ip dosed Swiss CD-1 mouse model assessed as time spent on licking or biting formalin injected right hind paw […] measured during phase 2; assay type: functional
Rattus norvegicus [19] = assay: Anti-inflammatory activity in Wistar rat assessed as inhibition of carrageenan-induced paw edema at 20 mg/kg, ip measured at 1 hr post dose relative to control; assay type: functional
Rattus norvegicus [20] = assay: Anti-inflammatory activity in Wistar rat assessed as inhibition of carrageenan-induced paw edema at 20 mg/kg, ip measured at 2 hrs post dose relative to control; assay type: functional
Rattus norvegicus [21] = assay: Anti-inflammatory activity in Wistar rat assessed as inhibition of carrageenan-induced paw edema at 20 mg/kg, ip measured at 3 hrs post dose relative to control; assay type: functional
Rattus norvegicus [22] = assay: Antiallodynic activity in Wistar rat assessed as reduction in oxaliplatin-induced neuropathic pain in early phase by measuring paw withdrawal force at 10 mg/kg, ip measured after 60 mins by Von Frey test; assay type: functional, organism-based
Rattus norvegicus [23] = assay: Antiallodynic activity in Wistar rat assessed as reduction in oxaliplatin-induced neuropathic pain in late phase by measuring paw withdrawal latency time at 1 to 10 mg/kg, ip measured after 60 secs by cold plate test; assay type: functional, organism-based
Rattus norvegicus [24] = assay: Antiallodynic activity in Wistar rat assessed as reduction in oxaliplatin-induced neuropathic pain in early phase by measuring paw withdrawal latency time at 1 to 10 mg/kg, ip measured after 60 secs by cold plate test; assay type: functional, organism-based
Mus musculus [25] = assay: Antiinflammatory activity in formalin-induced nociception Swiss CD-1 mouse model assessed as time spent on licking or biting formalin injected right hind paw during neurogenic phase at 10 mg/kg, ip measured during phase 1 (reference value: 75.50 +/- 6.86 sec); assay type: functional
Mus musculus [26] = assay: Antiinflammatory activity in formalin-induced nociception Swiss CD-1 mouse model assessed as time spent on licking or biting formalin injected right hind paw during neurogenic phase at 5 mg/kg, ip measured during phase 1 (reference value: 75.50 +/- 6.86 sec); assay type: functional
Mus musculus [27] = assay: Antiinflammatory activity in formalin-induced nociception Swiss CD-1 mouse model assessed as time spent on licking or biting formalin injected right hind paw during neurogenic phase at 2.5 mg/kg, ip measured during phase 1 (reference value: 75.50 +/- 6.86 sec); assay type: functional
Mus musculus [28] = assay: Antiinflammatory activity in formalin-induced nociception Swiss CD-1 mouse model assessed as time spent on licking or biting formalin injected right hind paw during […] phase at 10 mg/kg, ip measured during phase 2 (reference value: 143.60 sec); assay type: functional
Mus musculus [29] = assay: Antiinflammatory activity in formalin-induced nociception Swiss CD-1 mouse model assessed as time spent on licking or biting formalin injected right hind paw […] at 5 mg/kg, ip measured during phase 2 (reference value: 143.60 sec); assay type: functional
Mus musculus [30] = assay: Antiinflammatory activity in formalin-induced nociception Swiss CD-1 mouse model assessed as time spent on licking or biting formalin injected right hind paw during […] phase at 2.5 mg/kg, ip measured during phase 2 (reference value: 143.60 sec); assay type: functional
Rattus norvegicus [31] = assay: Antiallodynic activity in Wistar rat assessed as reduction in oxaliplatin-induced neuropathic pain in early phase by measuring paw withdrawal force at 5 to 10 mg/kg, ip measured after 60 mins by Von Frey test; assay type: functional, organism-based
Rattus norvegicus [32] = assay: Antiallodynic activity in Wistar rat assessed as reduction in oxaliplatin-induced neuropathic pain in late phase by measuring paw withdrawal force at 10 mg/kg, ip measured after 60 mins by Von Frey test; assay type: functional, organism-based
Rattus norvegicus [33] = assay: Antiallodynic activity in Wistar rat assessed as reduction in oxaliplatin-induced neuropathic pain in early phase by measuring paw withdrawal force at 1 mg/kg, ip measured after 60 mins by Von Frey test; assay type: functional, organism-based
Rattus norvegicus [34] = assay: Antiallodynic activity in Wistar rat assessed as reduction in oxaliplatin-induced neuropathic pain in late phase by measuring paw withdrawal latency time at 1 mg/kg, ip measured after 60 secs by cold plate test; assay type: functional, organism-based
Rattus norvegicus [35] = assay: Antiallodynic activity in Wistar rat assessed as reduction in oxaliplatin-induced neuropathic pain in late phase by measuring paw withdrawal latency time at 5 mg/kg, ip measured after 60 secs by cold plate test; assay type: functional, organism-based
Rattus norvegicus [36] = assay: Antiinflammatory activity in Wistar rat assessed as inhibition of LPS-induced TNF-alpha level at 50 mg/kg, ip measured at 1 to 2 hrs post dose by ELISA relative to control; assay type: functional

SMILES | inhibition [1] [%] | inhibition [2] [%] | inhibition [3] [%] | pIC50 [4] | pIC50 [5] | concentration at 1 h [9] [nM] | concentration at 1.5 h [10] [nM] | concentration at 2 h [11] [nM] | ED50 (Mus musculus [17]) [mg/kg] | Ratio ED50 (Mus musculus [18]) | inhibition in vivo at 20 mg/kg (Rattus norvegicus [19]) [%] | inhibition in vivo at 20 mg/kg (Rattus norvegicus [20]) [%] | inhibition in vivo at 20 mg/kg (Rattus norvegicus [21]) [%] | other results
CCCCOc1nc2c(c(=O)n(C)c(=O)n2C)n1CCCC(=O)Nc1cc(C(C)(C)C)ccc1O | 39 | 7 | 6 | 5.27 | 5.29 | 1980 | 740 | 290 | 3.44 | 10 - 13 | 48 | 79.7 | 33.5 | inhibition in vivo at 50 mg/kg (Rattus norvegicus [6]): 85.4%; inhibition in vivo at 50 mg/kg (Rattus norvegicus [7]): 90.2%; inhibition in vivo at 50 mg/kg (Rattus norvegicus [8]): 92%; Time (Mus musculus [12]): 21.33 s; Time (Mus musculus [13]): 25.17 s; Time (Mus musculus [14]): 32 s; Time (Mus musculus [15]): 49.17 s; Time (Mus musculus [16]): 47.67 s; Activity (Rattus norvegicus [22]): Active; Activity (Rattus norvegicus [23]): Active; Activity (Rattus norvegicus [24]): Active
COc1nc2c(c(=O)n(C)c(=O)n2C)n1CC(=O)Nc1ccc(C(C)(C)C)cc1 | 53 | 40 | 40 | < 3.70 | < 3.70 | 2680 | 2330 | 1950 | 2.49 | 10 - 13 | 37.1 | 18.7 | 30.6 | Time (Mus musculus [25]): 65.17 s; Time (Mus musculus [26]): 86.33 s; Time (Mus musculus [27]): 69 s; Time (Mus musculus [28]): 31.67 s; Time (Mus musculus [29]): 48 s; Time (Mus musculus [30]): 72.6 s; Activity (Rattus norvegicus [31]): Active; Activity (Rattus norvegicus [32]): Active; Activity (Rattus norvegicus [33]): inactive; Activity (Rattus norvegicus [34]): Active; Activity (Rattus norvegicus [35]): Active; inhibition in vivo at 50 mg/kg (Rattus norvegicus [36]): 33 to 44%
